Measurements taken from ChEMBL document CHEMBL1201862, “PubChem BioAssay data set” (2004).
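All cell lines were grown in 96-well plates and treated with compound for 48 hours. Here, GI50 denotes the concentration required for 50% inhibition of growth.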 Calls of active or inactive are those of the source. Rule as the data show it: active = GI50 up to about 1.1 µM and inactive = higher.

Legend:
Assay in all cases: NCI tumour cell line growth inhibition, 48 h
BT-549 = system: BT-549
MDA-N = system: MDA-N
CCRF-CEM = system: CCRF-CEM
A498 = system: A498
HT-29 = system: HT-29
SK-MEL-5 = system: SK-MEL-5
NCI-H460 = system: NCI-H460
SF-268 = system: SF-268
A549 = system: A549
KM12 = system: KM12
ACHN = system: ACHN
NCI-H226 = system: NCI-H226
M14 = system: M14
SN12C = system: SN12C
U-251 = system: U-251
HOP-92 = system: HOP-92
MDA-MB-231 = system: MDA-MB-231
UACC-62 = system: UACC-62
PC-3 = system: PC-3
SR = system: SR

SMILES: CN(C)CCNc1ccc2ncn3c4ccc(O)cc4c(=O)c1c23
- GI50 (BT-549): 14.2 µM (inactive)
- GI50 (MDA-N): 2.88 µM (inactive)
- GI50 (CCRF-CEM): 0.171 µM (active)
- GI50 (A498): 0.745 µM (active)
- GI50 (HT-29): 1.06 µM (active)
- GI50 (SK-MEL-5): 0.714 µM (active)
- GI50 (NCI-H460): 0.0871 µM (active)
- GI50 (SF-268): 0.893 µM (active)
- GI50 (A549): 0.0661 µM (active)
- GI50 (KM12): 1.95 µM (inactive)
- GI50 (ACHN): 0.158 µM (active)
- GI50 (NCI-H226): 0.476 µM (active)
- GI50 (M14): 1.63 µM (inactive)
- GI50 (SN12C): 0.562 µM (active)
- GI50 (U-251): 0.214 µM (active)
- GI50 (HOP-92): 2.54 µM (inactive)
- GI50 (MDA-MB-231): 1.67 µM (inactive)
- GI50 (UACC-62): 3.44 µM (inactive)
- GI50 (PC-3): 1.42 µM (inactive)

SMILES: C[N+](C)(C)CC1CCCc2ccccc2C1=O (stereo unspecified)
- GI50 (BT-549): 19.1 µM (inactive)
- GI50 (CCRF-CEM): 2.32 µM (inactive)
- GI50 (SR): 1.64 µM (inactive)
- GI50 (A498): 14 µM (inactive)
- GI50 (SK-MEL-5): 6.59 µM (inactive)
- GI50 (NCI-H460): 22.1 µM (inactive)
- GI50 (SF-268): 22 µM (inactive)
- GI50 (A549): 4.06 µM (inactive)
- GI50 (KM12): 9.86 µM (inactive)
- GI50 (ACHN): 5.02 µM (inactive)
- GI50 (NCI-H226): 21.9 µM (inactive)
- GI50 (M14): 4.52 µM (inactive)
- GI50 (SN12C): 6.68 µM (inactive)
- GI50 (U-251): 6.71 µM (inactive)
- GI50 (HOP-92): 13.2 µM (inactive)
- GI50 (MDA-MB-231): 16.3 µM (inactive)
- GI50 (UACC-62): 12.2 µM (inactive)
- GI50 (PC-3): 16.8 µM (inactive)

SMILES: CC(C)=NN/C(=N\c1ccc(Cl)cc1)NS(=O)(=O)c1ccc(C)cc1
- GI50 (BT-549): > 100 µM (inactive)
- GI50 (MDA-N): > 100 µM (inactive)
- GI50 (CCRF-CEM): > 100 µM (inactive)
- GI50 (A498): 33 µM (inactive)
- GI50 (HT-29): > 100 µM (inactive)
- GI50 (SK-MEL-5): 60.3 µM (inactive)
- GI50 (NCI-H460): 57.8 µM (inactive)
- GI50 (SF-268): 60 µM (inactive)
- GI50 (A549): 62.4 µM (inactive)
- GI50 (KM12): 85.7 µM (inactive)
- GI50 (ACHN): 40.5 µM (inactive)
- GI50 (NCI-H226): > 100 µM (inactive)
- GI50 (M14): > 100 µM (inactive)
- GI50 (SN12C): 84.5 µM (inactive)
- GI50 (U-251): 96.8 µM (inactive)
- GI50 (HOP-92): 38.8 µM (inactive)
- GI50 (MDA-MB-231): 73.1 µM (inactive)
- GI50 (UACC-62): 49 µM (inactive)
- GI50 (PC-3): 41.2 µM (inactive)

SMILES: O=C(N/N=C/c1ccco1)c1cc(I)cc(I)c1O
- GI50 (BT-549): > 50 µM (inactive)
- GI50 (MDA-N): 22.9 µM (inactive)
- GI50 (CCRF-CEM): > 50 µM (inactive)
- GI50 (A498): 12.9 µM (inactive)
- GI50 (HT-29): 6.41 µM (inactive)
- GI50 (SK-MEL-5): 12.4 µM (inactive)
- GI50 (SF-268): > 50 µM (inactive)
- GI50 (A549): 31.9 µM (inactive)
- GI50 (ACHN): 22 µM (inactive)
- GI50 (NCI-H226): 11.4 µM (inactive)
- GI50 (M14): 8.24 µM (inactive)
- GI50 (SN12C): 9.06 µM (inactive)
- GI50 (HOP-92): 15.6 µM (inactive)
- GI50 (UACC-62): 16.6 µM (inactive)
- GI50 (PC-3): 35.2 µM (inactive)

SMILES: COc1ccc2c3c1OC1C(OC)(OC)CC4(C=C2)CN(C)CCC314 (stereo unspecified)
- GI50 (BT-549): > 100 µM (inactive)
- GI50 (MDA-N): > 100 µM (inactive)
- GI50 (CCRF-CEM): 30.4 µM (inactive)
- GI50 (A498): 28.6 µM (inactive)
- GI50 (HT-29): > 100 µM (inactive)
- GI50 (SK-MEL-5): > 100 µM (inactive)
- GI50 (NCI-H460): > 100 µM (inactive)
- GI50 (SF-268): > 100 µM (inactive)
- GI50 (A549): > 100 µM (inactive)
- GI50 (KM12): > 100 µM (inactive)
- GI50 (ACHN): > 100 µM (inactive)
- GI50 (NCI-H226): > 100 µM (inactive)
- GI50 (SN12C): > 100 µM (inactive)
- GI50 (U-251): > 100 µM (inactive)
- GI50 (MDA-MB-231): > 100 µM (inactive)
- GI50 (UACC-62): > 100 µM (inactive)

SMILES: Cc1ccccc1/N=N/c1c(O)ccc2ccccc12
- GI50 (BT-549): > 100 µM (inactive)
- GI50 (MDA-N): > 100 µM (inactive)
- GI50 (CCRF-CEM): > 100 µM (inactive)
- GI50 (HT-29): > 100 µM (inactive)
- GI50 (SK-MEL-5): > 100 µM (inactive)
- GI50 (SF-268): 62.4 µM (inactive)
- GI50 (A549): 69.3 µM (inactive)
- GI50 (KM12): 16.4 µM (inactive)
- GI50 (ACHN): > 100 µM (inactive)
- GI50 (NCI-H226): > 100 µM (inactive)
- GI50 (M14): > 100 µM (inactive)
- GI50 (SN12C): > 100 µM (inactive)
- GI50 (U-251): 70.1 µM (inactive)
- GI50 (HOP-92): > 100 µM (inactive)
- GI50 (MDA-MB-231): > 100 µM (inactive)
- GI50 (UACC-62): > 100 µM (inactive)
- GI50 (PC-3): > 100 µM (inactive)

SMILES: O=C(/C=C/c1ccccc1)CSc1nc[nH]n1
- GI50 (BT-549): > 100 µM (inactive)
- GI50 (MDA-N): > 100 µM (inactive)
- GI50 (CCRF-CEM): 34.8 µM (inactive)
- GI50 (SR): 62.1 µM (inactive)
- GI50 (HT-29): 44.4 µM (inactive)
- GI50 (SK-MEL-5): 38.5 µM (inactive)
- GI50 (NCI-H460): 79.4 µM (inactive)
- GI50 (SF-268): > 100 µM (inactive)
- GI50 (A549): > 100 µM (inactive)
- GI50 (KM12): > 100 µM (inactive)
- GI50 (ACHN): > 100 µM (inactive)
- GI50 (NCI-H226): > 100 µM (inactive)
- GI50 (M14): > 100 µM (inactive)
- GI50 (SN12C): > 100 µM (inactive)
- GI50 (U-251): 37.1 µM (inactive)
- GI50 (UACC-62): > 100 µM (inactive)
- GI50 (PC-3): > 100 µM (inactive)

SMILES: COc1ccc(C2C3=CONC3CC3CCCCC32)cc1 (stereo unspecified)
- GI50 (BT-549): > 100 µM (inactive)
- GI50 (MDA-N): > 10 µM (inactive)
- GI50 (CCRF-CEM): 42.1 µM (inactive)
- GI50 (SR): 41.9 µM (inactive)
- GI50 (HT-29): > 100 µM (inactive)
- GI50 (SK-MEL-5): 50.8 µM (inactive)
- GI50 (NCI-H460): 33.8 µM (inactive)
- GI50 (SF-268): 79.4 µM (inactive)
- GI50 (A549): 33.8 µM (inactive)
- GI50 (ACHN): 51.5 µM (inactive)
- GI50 (NCI-H226): > 100 µM (inactive)
- GI50 (M14): 54.5 µM (inactive)
- GI50 (U-251): 46 µM (inactive)
- GI50 (UACC-62): 70.1 µM (inactive)
- GI50 (PC-3): 30.6 µM (inactive)
